# Measurements: article PMC6273209, “Evaluation of the Enantiomer Specific Biokinetics and Radiation Doses of [^18F]Fluspidine—A New Tracer in Clinical Translation for Imaging of σ1 Receptors” (Molecules, 2016)
# pKi: −log10 of the molar value. Where two headings read alike, the source gives them in different places.
# What was measured:
# [1] = cited from earlier work
# [2] = imaging, cited from earlier work
# [3] = cited from earlier work; remark: listed apart in the source
# [4] = target: σ1 receptors; parameters: method as in PMID 24130175; conditions: read-out: Ki (affinity towards σ1 receptors); cited from earlier work
# [5] = Acute toxicity study, single intravenous injection; format: in vivo; conditions: Wistar rats
# Excerpt: Supplementary Materials: Evaluation of the Enantiomer Specific Biokinetics and Radiation Doses of [18F]Fluspidine—A New Tracer in Clinical
# Translation for Imaging of σ1 Receptors […]
# Supplemental Methods and Results
# Animal Toxicity Study of (S)-(−)-Fluspidine
# The purpose of this study was to assess the acute toxicity of (S)-(−)-fluspidine when administered by a single intravenous injection to rats followed by an observation period of 2 or 15 day (in accordance with EU cGLP). Briefly, the study was performed with 4 test groups, including 1 control (saline and dimethylsulfoxide) and 3 dose groups (6.2, 62 and 620 µg/kg, (S)- (−)ﬂuspidine), with Wistar rats (60 m, 60 f, 12 weeks) divided into two experiments: day 2 (40 males and 40 females) and day 15 (20 males and 20 females). The animals were weighted and allocated to the test groups based on their actual body weights. The animals were sacrificed at two time periods (day 2 and day 15 after test item administration) and then examined macroscopically and histopathologically. In addition the following parameters were evaluated: mortality, clinical observation (spasms, tremor and hyperactivity), body weights, food consumption, haematology (white blood cells, red blood cells, hemoglobin, hematocrit, mean corpuscular volume, mean corpuscular hemoglobin, platelets, lympohcytes, neutrophils, eosinophils, basophils, monocytes), clinical chemistry (alkaline phosphatase, aspartate aminotransferase, alanine aminotransferase, glucose, cholesterol, triacylglycerols, creatinine, urea, bilirubin, albumin, calcium, phosphorus, sodium, potassium chloride), pathology and histopathology. […]
# in either gender were detected. The food consumption corresponded with body weight development. All haematology parameter´s values on day 2 and day 15 were within physiological range for this species. Individual divergences of some values of the haematology parameters were slight and not connected with treatment.
# There were no findings in clinical chemistry parameters which could be definitively considered as adverse. The average values of all test groups were within the historical control ranges. Occasional changes had no dose relationship, they were considered to be a result of intraindividual and interindividual variability for this species. […]
# histopathological parameters on day 2 and day 15. The no observed effect level (NOEL) of (S)- (−)-fluspidine after single intravenous administration in this study for both day 2 and day 15 was determined to be 620 µg/kg.
# [6] = parameters: method as in PMID 12573321, PMID 12589478; conditions: cited from earlier work
structure (smiles),measurement,setting,value
"[18F]c1ccc(C2CC3CCCC2N3)cn1 (single isomer, unassigned; (+)) [(+)-[^18F]flubatine]",ED Preclinical,"[1]; mouse, imaging",12.1 μSv/MBq
same,ED Preclinical,[2]; piglets,14.3 μSv/MBq
same,ED Clinical,[3],23.0 μSv/MBq
[18F]c1ncccc1OC[C@@H]1CCN1 [2-[^18F]F-A85380],ED Clinical,[3],19.4 μSv/MBq
FCC[C@H]1OC2(CCN(Cc3ccccc3)CC2)c2ccccc21 [(R)-(+)-[^18F]fluspidine],pKi,[4],9.24
FCC[C@@H]1OC2(CCN(Cc3ccccc3)CC2)c2ccccc21 [(S)-(−)-fluspidine],"body weights, control vs treated groups","[5]; single i.v. 6.2, 62 and 620 µg/kg, either gender",No statistically significant differences in body weights
same,adverse findings in clinical chemistry parameters,[5]; single i.v.,no findings
same,effect on haematology parameters,"[5]; single i.v., day 2 and day 15",No test item effect
same,toxicological changes in pathological and histopathological parameters,"[5]; single intravenous administration, day 2 and day 15",did not cause toxicological changes
same,no observed effect level (NOEL),"[5]; single intravenous administration, day 2 and day 15, highest tested dose",0.62 mg/kg
[18F]c1ccc([C@@H]2C[C@H]3CCC[C@@H]2N3)cn1 [(−)-[^18F]flubatine],ED Preclinical,[1]; mouse,12.5 μSv/MBq
same,ED Preclinical,[2]; piglet,14.7 μSv/MBq
same,ED Clinical,[3],23.4 μSv/MBq
OC[C@H]1OC(O)[C@H]([18F])[C@@H](O)[C@@H]1O (stereo partly shown) [[^18F]FDG],ED Clinical,[3],19.0 μSv/MBq
COc1ccc(OCC[18F])c(CN(C(C)=O)c2cc(F)ccc2Oc2ccccc2)c1 [[^18F]FEDAA1106],ED Preclinical,[1]; female mouse,26.0 μSv/MBq
same,ED Preclinical,[1]; male mouse,21.0 μSv/MBq
same,ED Clinical,[3],36 μSv/MBq
N[C@@H](Cc1ccc(OCC[18F])cc1)C(=O)O [[^18F]FET],ED Preclinical,[6],9.0 μSv/MBq
same,ED Clinical,[3],16.5 μSv/MBq
